Test results: ChEMBL document CHEMBL1649193, “Statins as potential antimalarial drugs: low relative potency and lack of synergy with conventional antimalarial drugs” (Antimicrob Agents Chemother, 2009)

What was measured:
Assay type in all cases: functional, organism-based
Plasmodium falciparum [1] = assay: Antimalarial activity against chloroquine-resistant Plasmodium falciparum E8B assessed as Plasmodium lactate dehydrogenase release after 48 hrs by colorimetry
Plasmodium falciparum [2] = assay: Antimalarial activity against chloroquine-resistant Plasmodium falciparum Dd2 assessed as Plasmodium lactate dehydrogenase release after 48 hrs by colorimetry; details: Dd2, 48 h
Plasmodium falciparum [3] = assay: Antimalarial activity against chloroquine-sensitive Plasmodium falciparum 3D7 assessed as Plasmodium lactate dehydrogenase release after 48 hrs by colorimetry; details: 3D7, 48 h

CC(C)c1nc(N(C)S(C)(=O)=O)nc(-c2ccc(F)cc2)c1/C=C/[C@@H](O)C[C@@H](O)CC(=O)O [ROSUVASTATIN]
IC50 (Plasmodium falciparum [1]): 80 µM | IC90 (Plasmodium falciparum [1]): 232 µM | IC50 (Plasmodium falciparum [2]): 80 µM | IC90 (Plasmodium falciparum [2]): 232 µM | IC50 (Plasmodium falciparum [3]): 80 µM | IC90 (Plasmodium falciparum [3]): 205 µM

CC(C)c1c(C(=O)Nc2ccccc2)c(-c2ccccc2)c(-c2ccc(F)cc2)n1CC[C@@H](O)C[C@@H](O)CC(=O)O [ATORVASTATIN]
IC50 (Plasmodium falciparum [1]): 17 µM | IC90 (Plasmodium falciparum [1]): 39 µM | IC50 (Plasmodium falciparum [2]): 17 µM | IC90 (Plasmodium falciparum [2]): 39 µM | IC50 (Plasmodium falciparum [3]): 25 µM | IC90 (Plasmodium falciparum [3]): 68 µM
